One data set relates to ASK. Nature of the data set: Induction of morphological transformation of rat ASK cells into astrocytes at 100 ug/ml after 1 hr by light microscopy. In kind it is functional, cell-based.
The nature of data set [1]: Induction of morphological transformation of rat ASK cells into astrocytes after 1 hr by light microscopy. In kind it is functional. As to conditions: read-out: ED50 (the source's name).
Data set [2] can be described thus: Induction of cAMP production in rat ASK cells assessed per 10^6 cells at 50 uM after 1 hr by radioimmunoassay. In kind it is functional. Background: Cyclic AMP is a second messenger, typically raised through Gs and lowered through Gi signalling.
Data set [3] can be described thus: Induction of morphological transformation of rat ASK cells into astrocytes at 6.2 uM after 1 hr by light microscopy in presence of fetal calf serum. In kind it is functional.
Data set [4] is described as follows: Induction of morphological transformation of rat ASK cells into astrocytes at 100 uM after 1 hr by light microscopy in presence of fetal calf serum. It is filed as functional.
Data set [5] in a line: Cytotoxicity against rat ASK cells at 150 uM. It is filed as cell-based.
Data set [6] in a line: Induction of morphological transformation of rat ASK cells into astrocytes at 25 uM after 1 hr by light microscopy in absence of fetal calf serum. In kind it is functional.
Data set [7] in a line: Induction of morphological transformation of rat ASK cells into astrocytes at 100 uM after 1 hr by light microscopy in presence of colchicine. In kind it is functional.
Data set [8] is described as follows: Induction of morphological transformation of rat ASK cells into astrocytes at 12.5 uM after 1 hr by light microscopy in presence of fetal calf serum. It is filed as functional.
Data set [9] is described as follows: Induction of morphological transformation of rat ASK cells into astrocytes at 50 uM after 1 hr by light microscopy in presence of colchicine. In kind it is functional.
The nature of data set [10]: Induction of morphological transformation of rat ASK cells into astrocytes at 12.5 uM after 1 hr by light microscopy in presence of colchicine. It is filed as functional.
Data set [11] is described as follows: Induction of morphological transformation of rat ASK cells into astrocytes at 25 uM after 1 hr by light microscopy in presence of colchicine. It is filed as functional.
Data set [12] in a line: Induction of morphological transformation of rat ASK cells into astrocytes at 12.5 uM after 1 hr by light microscopy in absence of fetal calf serum. It is filed as functional.
Data set [13] can be described thus: Induction of morphological transformation of rat ASK cells into astrocytes at 50 uM after 1 hr by light microscopy in presence of fetal calf serum. It is filed as functional.
Data set [14] in a line: Induction of morphological transformation of rat ASK cells into astrocytes at 50 uM after 1 hr by light microscopy in absence of fetal calf serum. It is filed as functional.
Data set [15] can be described thus: Induction of morphological transformation of rat ASK cells into astrocytes at 6.2 uM after 1 hr by light microscopy in absence of fetal calf serum. It is filed as functional.
Data set [16] is described as follows: Induction of morphological transformation of rat ASK cells into astrocytes at 150 uM after 1 hr by light microscopy in presence of fetal calf serum. It is filed as functional.
Data set [17] can be described thus: Induction of morphological transformation of rat ASK cells into astrocytes at 6.2 uM after 1 hr by light microscopy in presence of colchicine. It is filed as functional.
Data set [18] in a line: Induction of morphological transformation of rat ASK cells into astrocytes at 100 uM after 1 hr by light microscopy in absence of fetal calf serum. It is filed as functional.
A short description of data set [19]: Induction of morphological transformation of rat ASK cells into astrocytes at 25 uM after 1 hr by light microscopy in presence of fetal calf serum. In kind it is functional.
Data set [20] in a line: Induction of morphological transformation of rat ASK cells into astrocytes at 0.004 uM after 1 hr by light microscopy. It is filed as functional.
A short description of data set [21]: Induction of morphological transformation of rat ASK cells into astrocytes at 0.02 uM after 1 hr by light microscopy. It is filed as functional.
Data set [22] in a line: Induction of morphological transformation of rat ASK cells into astrocytes at 0.5 uM after 1 hr by light microscopy. In kind it is functional.
Data set [23] is described as follows: Induction of morphological transformation of rat ASK cells into astrocytes at 0.10 uM after 1 hr by light microscopy. It is filed as functional.
A short description of data set [24]: Induction of morphological transformation of rat ASK cells into astrocytes at 2.5 uM after 1 hr by light microscopy. In kind it is functional.

pEC50: −log10 of the molar value. Active and inactive are the calls of the source. The rule behind the calls is not given here.

This is an account of results in ChEMBL document CHEMBL1151112, “A rapid and sensitive bioassay involving cultured rat glioma cells to screen for substances capable of elevating intracellular cyclic AMP concentration” (J Nat Prod, 1988).

On to `CC(C)=CCC[C@](C)(O[C@@H]1O[C@H](CO)[C@@H](O)[C@H](O)[C@H]1O)[C@H]1CC[C@]2(C)[C@@H]1[C@H](O)C[C@@H]1[C@@]3(C)CC[C@H](O)C(C)(C)[C@@H]3[C@@H](O[C@@H]3O[C@H](CO)[C@@H](O)[C@H](O)[C@H]3O[C@@H]3O[C@@H](C)[C@H](O)[C@@H](O)[C@H]3O)C[C@]12C`, for which the outcome with ASK was inactive.

`CC1=C(/C=C/C(C)C/C=C/C(C)=C/C(=O)O)C(C)(C)CCC1` (configuration not stated): in data set [1], the pEC50 was 5.00.

As for `COC(=O)/C=C(C)/C=C/C=C(C)/C=C/C1=C(C)CCCC1(C)C` [RETINOIC ACID METHYL ESTER], the pEC50 in [1] was less than 4.60.

Consider `CC(=O)C1=C(/C=C/C(C)=C/C=C/C(C)=C/C(=O)O)C(C)(C)CC1`, for which, in [1], the pEC50 is less than 4.60.

As to `CC(C)=CCC[C@](C)(O[C@@H]1O[C@H](CO[C@@H]2O[C@@H](CO)[C@H](O)[C@H]2O)[C@@H](O)[C@H](O)[C@H]1O)[C@H]1CC[C@]2(C)[C@@H]1[C@H](O)C[C@@H]1[C@@]3(C)CC[C@H](O[C@@H]4O[C@H](CO)[C@@H](O)[C@H](O)[C@H]4O[C@@H]4O[C@H](CO)[C@@H](O)[C@H](O)[C@H]4O)C(C)(C)[C@@H]3CC[C@]12C`, the outcome with ASK was inactive.

On to `CC(C)=CCC[C@](C)(O)[C@H]1CC[C@]2(C)[C@@H]1[C@H](O)C[C@@H]1[C@@]3(C)CC[C@H](O)C(C)(C)[C@@H]3[C@@H](O[C@@H]3O[C@H](CO)[C@@H](O)[C@H](O)[C@H]3O[C@@H]3O[C@@H](C)[C@H](O)[C@@H](O)[C@H]3O)C[C@]12C`, for which, in the data set on ASK, the result was inactive.

Turning to `CC(C)=CCC[C@](C)(O[C@@H]1O[C@H](CO[C@@H]2O[C@H](CO)[C@@H](O)[C@H](O)[C@H]2O)[C@@H](O)[C@H](O)[C@H]1O)[C@H]1CC[C@]2(C)[C@@H]1[C@H](O)C[C@@H]1[C@@]3(C)CC[C@H](O[C@@H]4O[C@H](CO)[C@@H](O)[C@H](O)[C@H]4O[C@@H]4O[C@H](CO)[C@@H](O)[C@H](O)[C@H]4O)C(C)(C)[C@@H]3CC[C@]12C`, in the data set on ASK, the outcome was inactive.

Consider `CCNC(=O)/C=C(C)/C=C/C=C(C)/C=C/c1c(C)cc(OC)c(C)c1C` [MOTRETINIDE], for which the pEC50 in data set [1] is less than 4.60.

Regarding `CC1=C(/C=C/C(C)=C/C=C/C(C)=C/C(=O)O)C(C)(C)CCC1` [TRETINOIN], the Activity in [2] is given as 20 pmol; in data set [3] it was 0%; in data set [4], 40%; in data set [5] it was “Toxic”; in [6] it was 80%; in data set [7], 50%. The Activity in data set [8] was determined as 10%; in data set [9] it was 30%; in data set [10] it was 0%; in data set [11], 15%; in [12] it was 70%; in data set [13], 30%. The Activity was determined as 95% in data set [14]; 50% in data set [15]; 65% in data set [16]; 0% in [17]; 100% in data set [18]; 20% in data set [19]. Besides, the pEC50 in [1] was 5.00.

In the case of `CC(C)=CCC[C@](C)(O[C@@H]1O[C@H](CO)[C@@H](O)[C@H](O)[C@H]1O)[C@H]1CC[C@]2(C)[C@@H]1[C@H](O)C[C@@H]1[C@@]3(C)CC[C@H](O[C@@H]4O[C@H](CO)[C@@H](O)[C@H](O)[C@H]4O[C@@H]4O[C@H](CO)[C@@H](O)[C@H](O)[C@H]4O)C(C)(C)[C@@H]3CC[C@]12C`, the result in the data set on ASK was inactive.

Turning to `CC(=O)OC/C=C(C)/C=C/C=C(C)/C=C/C1=C(C)CCCC1(C)C` [GILRETINOL ACETATE], in data set [1], the pEC50 is 5.00.

For the compound `CC1=C(/C=C/C(C)=C/C=C/C(C)=C\C(=O)O)C(C)(C)CCC1` [ISOTRETINOIN], the pEC50 in data set [1] was greater than 5.00.

Turning to `CC1(C)CC[C@]2(C(=O)O[C@@H]3O[C@H](CO)[C@@H](O)[C@H](O)[C@H]3O)CC[C@]3(C)C(=CC[C@@H]4[C@@]5(C)CC[C@H](O[C@@H]6O[C@H](C(=O)O)[C@@H](O)[C@H](O)[C@H]6O[C@@H]6O[C@H](CO)[C@@H](O)[C@H](O)[C@H]6O)C(C)(C)[C@@H]5CC[C@]43C)[C@@H]2C1`, the result with ASK was inactive.

Take `C=C[C@@]1(C)CC(=O)[C@@]23OS(=O)O[C@H]4CCC(C)(C)[C@H]([C@H](O)[C@H](OC(C)=O)[C@@]2(C)O1)[C@]43C` (some centres not stated): the pEC50 in [1] was 5.51.

Take `C=C[C@@]1(C)CC(=O)[C@]2(O)[C@@]3(C)[C@@H](O)CCC(C)(C)[C@@H]3[C@H](O)[C@H](OC(C)=O)[C@@]2(C)O1` [COLFORSIN]: the Activity in [20] came to 0%; in data set [21], 15%; in [22] it was 100%; in data set [23] it was 50%; in [24], 100%. The pEC50 in data set [1] is 7.15.

As to `CC(/C=C/C1C(C)CCCC1(C)C)=C\C=C\C(C)=C\C(=O)O` (configuration not stated), in [1], the pEC50 is greater than 5.00.

Take `CC1=C(CC/C(C)=C/C=C/C(C)=C/C(=O)O)C(C)(C)CCC1`: the pEC50 in [1] was greater than 5.00.

For the compound `CC(C)=CCC[C@](C)(O[C@@H]1O[C@H](CO[C@@H]2OC[C@@H](O)[C@H](O)[C@H]2O)[C@@H](O)[C@H](O)[C@H]1O)[C@H]1CC[C@]2(C)[C@@H]1[C@H](O)C[C@@H]1[C@@]3(C)CC[C@H](O[C@@H]4O[C@H](CO)[C@@H](O)[C@H](O)[C@H]4O[C@@H]4O[C@H](CO)[C@@H](O)[C@H](O)[C@H]4O)C(C)(C)[C@@H]3CC[C@]12C`, the result in the data set on ASK was inactive.

On to `CC(C)=CCC[C@](C)(O[C@@H]1O[C@H](CO[C@@H]2OC[C@H](O)[C@H](O)[C@H]2O)[C@@H](O)[C@H](O)[C@H]1O)[C@H]1CC[C@]2(C)[C@@H]1[C@H](O)C[C@@H]1[C@@]3(C)CC[C@H](O[C@@H]4O[C@H](CO)[C@@H](O)[C@H](O)[C@H]4O[C@@H]4O[C@H](CO)[C@@H](O)[C@H](O)[C@H]4O)C(C)(C)[C@@H]3CC[C@]12C`, for which the result in the data set on ASK was inactive.

In the case of `COC(C)C1=C(/C=C/C(C)=C/C=C/C(C)=C/C(=O)O)C(C)(C)CC1` (configuration not stated), the pEC50 in data set [1] is greater than 5.00.

Consider `CC(/C=C/C12OC1(C)CCCC2(C)C)=C\C=C\C(C)=C\C(=O)O` (configuration not stated), for which the pEC50 in data set [1] was less than 4.60.

Consider `CC(C)=CCC[C@](C)(O[C@@H]1O[C@H](CO)[C@@H](O)[C@H](O)[C@H]1O)[C@H]1CC[C@]2(C)[C@@H]1[C@H](O)C[C@@H]1[C@@]3(C)CC[C@H](O)C(C)(C)[C@@H]3[C@@H](O[C@@H]3O[C@H](CO)[C@@H](O)[C@H](O)[C@H]3O)C[C@]12C`, for which the outcome in the data set on ASK was inactive.

Consider `CC1=C(/C=C/C(C)=C/C=C/C(C)=C/C=O)C(C)(C)CCC1` [RETINAL], for which, in data set [1], the pEC50 was greater than 5.00.

With `C=C[C@@]1(C)CC(=O)[C@@H]2[C@@]3(C)CCCC(C)(C)[C@@H]3[C@H](O)[C@H](OC(C)=O)[C@@]2(C)O1`, the pEC50 in [1] is less than 4.00.

Take `CC1=C(/C=C/C(C)=C/C=C/C(C)=C/C=C/C(=O)O)C(C)(C)CCC1`: the pEC50 in [1] is less than 4.60.

For `C=C[C@@]1(C)CC(=O)[C@]2(O)[C@@]3(C)[C@@H](O)CCC(C)(C)[C@@H]3[C@H](O)[C@H](O)[C@@]2(C)O1`, the pEC50 in data set [1] was 5.41.

Turning to `CCOC(=O)/C=C(C)/C=C/C=C(C)/C=C/c1c(C)cc(OC)c(C)c1C` [ETRETINATE], the pEC50 in data set [1] was less than 4.60.

With `C=C[C@@]1(C)CC(O)[C@]2(O)[C@@]3(C)[C@@H](O)CCC(C)(C)[C@@H]3[C@H](O)[C@H](OC(C)=O)[C@@]2(C)O1` (some centres not stated), in data set [1], the pEC50 is 5.19.

Regarding `CC1=C(/C=C/C(C)=C/C=C/C(C)=C/CO)C(C)(C)CCC1` [RETINOL], in data set [1], the pEC50 was less than 4.60.
